Numbers after ± are expanded uncertainties.

Data set [1] is described as follows: wn = mass fraction of the nth substance listed. The conditions noted are these: 303.15 K, 101 kPa, Liquid; for viscosity: Capillary tube (Ostwald / Ubbelohde) method; for mass density: Pycnometric method.
The conditions of data set [2]: 303.15 K, 101 kPa, Liquid; for viscosity: Capillary tube (Ostwald / Ubbelohde) method; for mass density: Pycnometric method.

A word on the viscosity: it is the internal friction of a fluid under shear. As a reminder, the mass density is the mass of a sample divided by its volume. In the case of `CO` [methanol] + COCCO, in data set [1] (w2 = 0), the viscosity is 0.523 ± 0.01 mPa·s and the mass density was found to be 782 ± 1 kg/m3.
In the case of `CO` [methanol], in data set [2], the viscosity came out at 0.523 ± 0.01 mPa·s and the mass density came out at 782 ± 1 kg/m3.
As to `COCCO` [2-methoxyethan-1-ol] + CO, the viscosity is reported as 0.538 ± 0.011 mPa·s in data set [1] (w1 = 0.1), 0.557 ± 0.011 mPa·s in data set [1] (w1 = 0.2), 0.577 ± 0.011 mPa·s in data set [1] (w1 = 0.3) and 1.404 ± 0.023 mPa·s in data set [1] (w1 = 1). Further, the mass density in data set [1] (w1 = 0.1) is given as 798 ± 1 kg/m3; in data set [1] (w1 = 0.2) it was 817 ± 2 kg/m3; in data set [1] (w1 = 0.3) it was 833 ± 2 kg/m3; in data set [1] (w1 = 1), 956 ± 2 kg/m3.
As for `COCCO` [2-methoxyethan-1-ol], in data set [2], the viscosity worked out at 1.404 ± 0.023 mPa·s and the mass density amounted to 956 ± 2 kg/m3.

(Values after the NIST ThermoML archive (doi:10.1021/je900656c).)
